Source: patent publication US5324747A, “N-substituted anilines, inhibitors of phospholipases A2” (Hoffmann-La Roche Inc., priority 1992, dated 1994)

biological target: T1, HSF-PLA2 (Homo sapiens, UniProt P14555); experiment: Assay for Inhibition of HSF-PLA2 In Vitro; assay type: biochemical; conditions: (1 μM); read-out: Inhib of HSF-PLA2, % inhibition
T1 construct: extracellular enzyme obtained from human synovial fluid (HSF-PLA2); from tissue; host or cells: pooled human synovial fluid, added at 0.1% (v/v)
T1 sequence (P14555 21-144): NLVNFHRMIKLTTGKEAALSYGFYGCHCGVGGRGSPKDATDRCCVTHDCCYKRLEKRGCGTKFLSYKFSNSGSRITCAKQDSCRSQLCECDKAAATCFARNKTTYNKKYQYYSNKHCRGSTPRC
Method: Assay for Inhibition of HSF-PLA2 In Vitro
The PLA2 used in this test is the extracellular enzyme obtained from human synovial fluid (HSF-PLA2).
The optimal conditions which were developed for the assay of HSF-PLA2 inhibitors are summarized as follows. […] The reaction was initiated by the addition of HSF-PLA2 and duplicate samples of the mixture were incubated in 13×100 mm glass tubes with shaking for 30 minutes at 37° C. […] The extraction of lipids from the stopped reaction mixture was conducted by the further additions of […] of chloroform and 1 ml of water with mixing. After centrifuging, the lower chloroform phase was transferred to smaller glass tubes and the solvent was evaporated to dryness with a nitrogen stream. The extracted lipid residue was redissolved in 50 μl of a solution containing carrier oleic acid (0.2 mg/ml) of chloroform-methanol [9 to 1, v/v]). The whole lipid extract was applied to a preactivated (30 minutes at 110° C.) silica gel-impregnated glass fiber thin layer chromatography sheet (ITLC type SG sheet from Gelman Sciences, Inc., Ann Arbor, Mich.) using hexane-acetic acid (100 to 1, v/v) as the developing solvent. This TLC system rapidly (6 minutes) resolved the enzymatically released product, ^14 C-oleic acid, from the unreacted ^14 C-phospholipid substrate. The unsaturated lipids were located on the chromatogram by a brief exposure to iodine vapor. […] A control incubation of substrate in the absence of HSF-PLA2 was performed in each experiment.

| inhibition at 1 µM | Compound |
| --- | --- |
| 39% | CCCCCCCCCCc1ccc(N(CC(=O)O)CC(=O)O)cc1 [Example 39d, N-(carboxymethyl)-N-(4-decylphenyl)glycine] |
| 64% | CCCCCCCCCC(=O)Oc1cc(OC(=O)CCCCCCCCC)cc(N(CC(=O)O)CC(=O)O)c1 [Example 6u, N-(carboxymethyl)-N-[3,5-bis[(1-oxodecyl)oxy]phenyl]glycine] |
| 67% | CCCCCCCCCCCCCCc1ccc(N(CC(=O)O)CC(=O)O)cc1 [Example 39, N-(carboxymethyl)-N-(4-tetradecylphenyl)glycine] |

same assay, conditions: (5 μM); read-out: Inhib of HSF-PLA2, % inhibition

| inhibition at 5 µM | Compound |
| --- | --- |
| 67% | CCCCC/C=C\C/C=C\CCCCCCCC(=O)Nc1cccc(N(CC(=O)O)CC(=O)O)c1 [Example 51, N-(carboxymethyl)-N-[3-[(9Z,12Z)-(1-oxo-9,12-octadecadienyl)amino]phenyl]glycine] |
| 63% | CCCCCCCC/C=C\CCCCCCCC(=O)Nc1cccc(N(CC(=O)O)CC(=O)O)c1 [Example 51] |

same assay, conditions: (10 μM); read-out: Inhib of HSF-PLA2, % inhibition

| inhibition at 10 µM | Compound |
| --- | --- |
| 46% | CCCCCCCCCCNC(=O)c1cccc(N(CC(=O)O)CC(=O)O)c1 [Example 36d, N-(carboxymethyl)-N-[[(decylamino)carbonyl]phenyl]glycine] |
| 30% | O=C(O)CN(CC(=O)O)c1cc(C(=O)NC23CC4CC(CC(C4)C2)C3)cc(C(=O)NC23CC4CC(CC(C4)C2)C3)c1 [Example 6s] |
| 39% | CCCCCCCCCCCCCCCCCCCc1cc(CCCCCCCCCCCCCCCCCCC)cc(N(CC(=O)O)CC(=O)O)c1 [Example 6t, N-(carboxymethyl)-N-(3,5-dinonadecylphenyl)glycine] |
| 19% | O=C(O)CN(CC(=O)O)c1cccc(OCCOc2ccc3ccccc3c2)c1 [Example 36g, N-(carboxymethyl)-N-[(3-(2-naphthalenyloxy)ethoxy]phenyl]glycine] |
| 73% | CCCCCCCCCCCCCCOc1cc(NCC(=O)O)cc(OCCCCCCCCCCCCCC)c1 [Example 127c, N-[3,5-bis(tetradecyloxy)phenyl]glycine] |

same assay, conditions: (20 μM); read-out: Inhib of HSF-PLA2, % inhibition

| inhibition at 20 µM | Compound |
| --- | --- |
| 6% | O=C(O)CCCCOc1cc(OCCCCC(=O)O)cc(N(CC(=O)O)CC(=O)O)c1 [Example 6i, N-(carboxymethyl)-N-[3,5-bis[(5-hydroxy-5-oxopentyl)oxy]phenyl]glycine] |
| -10% | O=C(O)CN(CC(=O)O)c1ccccc1 [Example 39a, N-(carboxymethyl)-N-phenylglycine] |
| 25% | O=C(O)CN(CC(=O)O)c1cccc(C(=O)NC23CC4CC(CC(C4)C2)C3)c1 [Example 36h, N-(carboxymethyl)-N-[3-[(tricyclo[3.3.1.1/3,7/]dec-1-ylamino)carbonyl]phenyl]glycine] |

same assay, conditions: read-out: Inhib of HSF-PLA2 IC50

| IC50 | Compound |
| --- | --- |
| 200 nM | CCCCC/C=C\C/C=C\CCCCCCCCOc1cccc(N(CC(=O)O)CC(=O)O)c1 [Example 49, N-(carboxymethyl)-N-[3-[(9Z,12Z)-(9,12-octadecadienyl]oxy]phenyl]glycine] |
| 3800 nM | CCCCCCCCCC(=O)Nc1cc(NC(=O)CCCCCCCCC)cc(N(CC(=O)O)CC(=O)O)c1 [Example 21] |
| 500 nM | CCCCCCCCCCCCCCCCCCOc1cc(OCCCCCCCCCCCCCCCCCC)cc(N(CC(=O)O)CC(=O)O)c1 [Example 6f, N-(carboxymethyl)-N-[3,5-bis(octadecyloxy)phenyl]glycine] |
| 600 nM | O=C(O)CN(CC(=O)O)c1cc(OCCOc2ccc3ccccc3c2)cc(OCCOc2ccc3ccccc3c2)c1 [Example 6o, N-(carboxymethyl)-N-[3,5-bis[2-[2-naphthalenyloxy)]ethoxy]glycine] |
| 1500 nM | CCCCCCCCCCc1cc(CCCCCCCCCC)cc(N(CC(=O)O)CC(=O)O)c1 [Example 29, N-(Carboxymethyl)-N-(3,5-didecylphenyl) glycine] |
| 300 nM | CCCCCCCCCCCCCCCCCCOc1cc(NCC(=O)O)cc(OC(=O)C23CC4CC(CC(C4)C2)C3)c1 [Example 175, N-[[3-(Octadecyloxy)-5-(tricyclo[3.3.1.1/3.7/]dec-1-ylcarbonyl)oxy]phenyl]glycine] |
| 200 nM | CCCCCCCCCCCCCCCCCCCc1cccc(N(CC(=O)O)CC(=O)O)c1 [Example 36f, N-(carboxymethyl)-N-(3-nonadecylphenyl)glycine] |
| 200 nM | CCCCCCCCCCCCCCCCCCOc1cc(OCCCCCCCCCCC(=O)O)cc(N(CC(=O)O)CC(=O)O)c1 [Example 58e] |
| 640 nM | CCCCCCCCCCCCCCCCCCNC(=O)c1cc(C(=O)NCCCCCCCCCCCCCCCCCC)cc(N(CC(=O)O)CC(=O)O)c1 [Example 6r, N-(carboxymethyl)-N-[3,5-bis[(octadecylamino)carbonyl]phenyl]glycine] |
| 580 nM | O=C(O)CN(CC(=O)O)c1cc(OCCCOc2cccc(-c3ccccc3)c2)cc(OCCCOc2cccc(-c3ccccc3)c2)c1 [Example 6m] |
| 300 nM | CCCCCCCCCCCCCCCCCCOc1cc(OC(=O)C23CC4CC(CC(C4)C2)C3)cc(N(CC(=O)O)CC(=O)O)c1 [Example 58f, N-(Carboxymethyl)-N-[[3-(octadecyloxy)-5-(tricyclo[3.3.1.1/3,7]dec-1-ylcarbonyl)oxy]phenyl]glycine] |
| 220 nM | CCCCCCCCCCCCCCCCCCOc1cc(OC(C)=O)cc(N(CC(=O)O)CC(=O)O)c1 [Example 80] |
| 160 nM | CCCCCCCCCCOc1ccc(N(CC(=O)O)CC(=O)O)cc1OCCCCCCCCCC [Example 119a, N-(carboxymethyl)-N-[3,4-bis(decyloxy)phenyl]glycine] |
| 300 nM | CCCCCCCCCCCCCCCCCCOc1cc(OCCCOc2cccnc2)cc(N(CC(=O)O)CC(=O)O)c1 [Example 58i] |
| 300 nM | CCCCCCCC/C=C\CCCCCCCCOc1cccc(N(CC(=O)O)CC(=O)O)c1 [Example 49] |
| 80 nM | CCCCCCCCCCCCCCCCCCOc1cc(OCCCCCCCCCCC(=O)OC)cc(N(CC(=O)O)CC(=O)O)c1 [Example 58d, N-(carboxymethyl)-N-[3-(11-methoxy-11-oxoundecyloxy)-5-(octadecyloxy)phenyl]glycine] |
| 2000 nM | O=C(O)CN(CC(=O)O)c1cc(OCCOc2cccc3ccccc23)cc(OCCOc2cccc3ccccc23)c1 [Example 6p, N-(carboxymethyl)-N-[3,5-bis[2-[1-naphthalenyloxy)]ethoxy]glycine] |
| 100 nM | CCCCCCCCCCCCCCCCCCOc1cc(OC(=O)C(c2ccccc2)c2ccccc2)cc(N(CC(=O)O)CC(=O)O)c1 [Example 58g] |
| 3500 nM | CCCCCCCCC(O)COc1cc(NCC(=O)O)cc(OCC(O)CCCCCCCC)c1 (stereo not drawn) [127 d] |
| 400 nM | O=C(O)CN(CC(=O)O)c1cc(OCCCOc2ccc(-c3ccccc3)cc2)cc(OCCCOc2ccc(-c3ccccc3)cc2)c1 [Example 6n] |
